The source of these data is patent publication US12649750B2, “Macrocyclic compounds, compositions, and methods of using thereof” (Sionna Therapeutics Inc., priority 2022, dated 2026).

Test [1] deals with T1, CFTR (Homo sapiens, UniProt P13569, DEL508-508).
T1 construct: Primary human bronchial epithelial cells from a ΔF508 homozygous CF donor; host or cells: primary human bronchial epithelial cells (CF-HBE), ΔF508 homozygous donor
Description: TECC24 AUC fold over DMSO @10 μM, CFTR-mediated transepithelial chloride transport in CF-HBE cells. It is filed as cell-based. To be noted: test agent AUC divided by DMSO vehicle AUC, primary CF-HBE cells, ΔF508 homozygous donor, 48 hours incubation. In short, it runs like this:
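Primary ΔF508-homozygous CF bronchial epithelial cells on inserts were incubated 48 h at 36.5 °C with compound in IL-13-containing medium. VT and TEER were then recorded in current-clamp mode (pH 7.4 HEPES bath) with benzamil 10 μM, forskolin 10 μM, then CFTR inhibitor-172 20 μM. The IEQ AUC between forskolin and inhibitor was divided by vehicle AUC.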

Test [2] deals with T2, NBD1 (Homo sapiens, UniProt P13569).
T2 construct: Purified recombinant NBD1 was produced using previously described methods; made in house
T2 sequence (P13569 423-646 limits assumed): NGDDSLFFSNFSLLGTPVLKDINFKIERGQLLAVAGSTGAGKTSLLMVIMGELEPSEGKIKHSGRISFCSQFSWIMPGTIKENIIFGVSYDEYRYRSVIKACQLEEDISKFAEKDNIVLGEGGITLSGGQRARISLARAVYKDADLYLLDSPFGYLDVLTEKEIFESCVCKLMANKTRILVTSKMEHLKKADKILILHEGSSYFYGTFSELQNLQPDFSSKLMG
Description: Aggregation analysis using differential static light scattering (DSLS), thermal stability of NBD1 (ΔTagg). It is filed as binding. The note with it: ΔTagg versus DMSO control, NBD1 0.2 mg/ml. The essentials: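 Purified recombinant NBD1 at 0.2 mg/ml in 50 mM Tris-HCl, 150 mM NaCl, 5 mM MgCl2, 2 mM ATP, 2 mM DTT, pH 7.6, 1% glycerol, with compound, heated 1° C./min to 70° C. under light-scattering monitoring. Tagg taken at curve inflection; ΔTagg is compound Tagg minus mean DMSO-control Tagg, binned A (≤5° C.), B (>5-≤10° C.), C (>10-≤25° C.).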

T1 sequence (P13569 with tags, fused parts or gaps DEL508-508): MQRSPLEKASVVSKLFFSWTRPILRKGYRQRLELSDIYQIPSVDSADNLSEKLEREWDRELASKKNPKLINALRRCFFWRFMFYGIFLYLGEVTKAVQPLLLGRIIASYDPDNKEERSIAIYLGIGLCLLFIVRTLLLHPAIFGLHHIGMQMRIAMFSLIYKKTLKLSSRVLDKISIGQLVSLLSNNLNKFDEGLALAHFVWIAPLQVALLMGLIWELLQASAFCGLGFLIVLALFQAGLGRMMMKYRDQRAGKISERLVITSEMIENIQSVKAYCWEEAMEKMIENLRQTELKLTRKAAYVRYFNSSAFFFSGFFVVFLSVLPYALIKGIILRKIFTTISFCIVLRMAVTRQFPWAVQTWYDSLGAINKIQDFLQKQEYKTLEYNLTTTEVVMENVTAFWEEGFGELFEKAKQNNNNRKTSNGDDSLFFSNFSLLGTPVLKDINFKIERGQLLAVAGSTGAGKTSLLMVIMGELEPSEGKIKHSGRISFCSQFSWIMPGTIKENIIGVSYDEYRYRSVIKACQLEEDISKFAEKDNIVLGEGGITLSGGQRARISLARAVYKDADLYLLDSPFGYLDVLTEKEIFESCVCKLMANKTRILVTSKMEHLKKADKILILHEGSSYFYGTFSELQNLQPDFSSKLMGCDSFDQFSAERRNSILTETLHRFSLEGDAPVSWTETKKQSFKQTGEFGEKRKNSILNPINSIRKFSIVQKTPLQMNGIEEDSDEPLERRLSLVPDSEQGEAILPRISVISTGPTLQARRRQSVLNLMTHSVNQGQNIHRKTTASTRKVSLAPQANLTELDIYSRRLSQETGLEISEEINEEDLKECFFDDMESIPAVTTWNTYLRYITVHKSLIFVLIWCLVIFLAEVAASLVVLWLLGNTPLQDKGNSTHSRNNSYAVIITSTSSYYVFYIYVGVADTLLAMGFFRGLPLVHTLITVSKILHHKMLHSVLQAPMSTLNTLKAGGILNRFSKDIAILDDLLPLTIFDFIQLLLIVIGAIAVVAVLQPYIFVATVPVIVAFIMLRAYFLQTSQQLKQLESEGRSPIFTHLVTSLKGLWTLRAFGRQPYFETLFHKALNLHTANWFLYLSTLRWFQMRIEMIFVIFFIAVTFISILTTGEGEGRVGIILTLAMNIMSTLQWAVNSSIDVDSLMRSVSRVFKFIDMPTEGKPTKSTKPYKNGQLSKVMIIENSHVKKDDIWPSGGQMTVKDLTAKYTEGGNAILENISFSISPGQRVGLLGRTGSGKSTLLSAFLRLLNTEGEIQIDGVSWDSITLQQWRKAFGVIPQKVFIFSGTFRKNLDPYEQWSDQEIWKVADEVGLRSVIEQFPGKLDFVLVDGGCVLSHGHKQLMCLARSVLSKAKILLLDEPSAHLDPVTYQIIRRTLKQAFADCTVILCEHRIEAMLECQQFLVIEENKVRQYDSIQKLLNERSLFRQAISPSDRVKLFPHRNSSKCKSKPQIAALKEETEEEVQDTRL

As to `CC1(C)CCCC(C)(c2cccc(CC3(C(=O)O)CC3)c2)c2c[nH]c(n2)-c2cc(ccc2F)Oc2c(F)cc3[nH]ccc3c2CCS(=O)(=O)C1` (single isomer, unassigned) [Compound 171B, 1-[[3-(22,28-difluoro-6,10,10-trimethyl-12,12-dioxo-24-oxa-12λ6-thia-3,19,30-triazapentacyclo[23.3.1.12,5.015,23.016,20]triaconta-1(29),2(30),4,15,17,20,22,25,27-nonaen-6-yl)phenyl]methyl]cyclopropanecarboxylic Acid], the “TECC (AUC, 10 μM)” value in test [1] is on record as “A (a TECC value less than 12 is marked “A”)”. Moreover, the “DSLS 3D (100 μM ΔT)” value in test [2] was “C (a value greater than 10 °C and less than or equal to 25 °C is marked “C”)”.

`C[C@@H](Cc1cccc(C2(C)CCCC(C)(C)CS(=O)(=O)CCc3c(c(F)cc4[nH]ccc34)[S+]([O-])c3ccc(F)c(c3)-c3nc2nn3C)n1)C(=O)O` (single isomer, unassigned) [Compound 179A]: in test [1], the “TECC (AUC, 10 μM)” value is given as “A (a TECC value less than 12 is marked “A”)”. Further, the “DSLS 3D (100 μM ΔT)” value in test [2] was “B (a value above 5 °C and less than or equal to 10 °C is marked “B”)”.

Turning to `C[C@@H](Cc1cccc(C2(C)CCCC(C)(C)CS(=O)(=O)CCc3c(c(F)cc4[nH]ccc34)[S+]([O-])c3ccc(F)c(c3)-c3nc2nn3C)n1)C(=O)O` (single isomer, unassigned) [Compound 179B], the “TECC (AUC, 10 μM)” value in test [1] is “A (a TECC value less than 12 is marked “A”)”. In addition, the “DSLS 3D (100 μM ΔT)” value in test [2] was “A (an ΔTagg value less than or equal to 5 °C is marked “A”)”.

As for `C[C@@H](Cc1cccc(C2(C)CCCC(C)(C)CS(=O)(=O)CCc3c(c(F)cc4[nH]ccc34)[S+]([O-])c3ccc(F)c(c3)-c3nc2nn3C)n1)C(=O)O` (single isomer, unassigned) [Compound 179C], the “TECC (AUC, 10 μM)” value in test [1] is “C (a value between 20 and 80 is marked “C”)”. The “DSLS 3D (100 μM ΔT)” value in test [2] was “C (a value greater than 10 °C and less than or equal to 25 °C is marked “C”)”.

On to `C[C@@H](Cc1cccc(C2(C)CCCC(C)(C)CS(=O)(=O)CCc3c(c(F)cc4[nH]ccc34)[S+]([O-])c3ccc(F)c(c3)-c3nc2nn3C)n1)C(=O)O` (single isomer, unassigned) [Compound 179D], for which the “TECC (AUC, 10 μM)” value in test [1] is reported as “A (a TECC value less than 12 is marked “A”)”. In addition, in test [2], the “DSLS 3D (100 μM ΔT)” value is “A (an ΔTagg value less than or equal to 5 °C is marked “A”)”.

As for `C[C@@H](Cc1cccc(C2(C)CCCC(C)(C)CS(=O)(=O)CCc3c(c(F)cc4[nH]ccc34)S(=O)(=O)c3ccc(F)c(c3)-c3nc2nn3C)n1)C(=O)O` (single isomer, unassigned) [Compound 180A], the “TECC (AUC, 10 μM)” value in test [1] is “B (a value between 12-20 is marked “B”)”. Further, the “DSLS 3D (100 μM ΔT)” value in test [2] is “C (a value greater than 10 °C and less than or equal to 25 °C is marked “C”)”.

Take `C[C@@H](Cc1cccc(C2(C)CCCC(C)(C)CS(=O)(=O)CCc3c(c(F)cc4[nH]ccc34)S(=O)(=O)c3ccc(F)c(c3)-c3nc2nn3C)n1)C(=O)O` (single isomer, unassigned) [Compound 180B]: the “TECC (AUC, 10 μM)” value in test [1] is “A (a TECC value less than 12 is marked “A”)”. For the same molecule, in test [2], the “DSLS 3D (100 μM ΔT)” value was “A (an ΔTagg value less than or equal to 5 °C is marked “A”)”.

Take `C[C@H](Cc1cccc(C2(C)CCCC(C)(C)CS(=O)(=O)CCc3c(c(F)cc4[nH]ccc34)[S+]([O-])c3ccc(F)c(c3)-c3nc2nn3C)n1)C(=O)O` (single isomer, unassigned) [Compound 181A]: the “TECC (AUC, 10 μM)” value in test [1] is on record as “A (a TECC value less than 12 is marked “A”)”. Also, in test [2], the “DSLS 3D (100 μM ΔT)” value is “B (a value above 5 °C and less than or equal to 10 °C is marked “B”)”.

Turning to `C[C@H](Cc1cccc(C2(C)CCCC(C)(C)CS(=O)(=O)CCc3c(c(F)cc4[nH]ccc34)[S+]([O-])c3ccc(F)c(c3)-c3nc2nn3C)n1)C(=O)O` (single isomer, unassigned) [Compound 181B], the “TECC (AUC, 10 μM)” value in test [1] is recorded as “A (a TECC value less than 12 is marked “A”)”. For the same molecule, the “DSLS 3D (100 μM ΔT)” value in test [2] is “A (an ΔTagg value less than or equal to 5 °C is marked “A”)”.

Turning to `C[C@H](Cc1cccc(C2(C)CCCC(C)(C)CS(=O)(=O)CCc3c(c(F)cc4[nH]ccc34)[S+]([O-])c3ccc(F)c(c3)-c3nc2nn3C)n1)C(=O)O` (single isomer, unassigned) [Compound 181C], the “TECC (AUC, 10 μM)” value in test [1] is on record as “A (a TECC value less than 12 is marked “A”)”. In addition, in test [2], the “DSLS 3D (100 μM ΔT)” value is “A (an ΔTagg value less than or equal to 5 °C is marked “A”)”.

As for `C[C@H](Cc1cccc(C2(C)CCCC(C)(C)CS(=O)(=O)CCc3c(c(F)cc4[nH]ccc34)[S+]([O-])c3ccc(F)c(c3)-c3nc2nn3C)n1)C(=O)O` (single isomer, unassigned) [Compound 181D], the “TECC (AUC, 10 μM)” value in test [1] is listed as “A (a TECC value less than 12 is marked “A”)”. The “DSLS 3D (100 μM ΔT)” value in test [2] was “C (a value greater than 10 °C and less than or equal to 25 °C is marked “C”)”.

As to `C[C@H](Cc1cccc(C2(C)CCCC(C)(C)CS(=O)(=O)CCc3c(c(F)cc4[nH]ccc34)Oc3cc(ccn3)-c3nc2nn3C)c1)C(=O)O` (single isomer, unassigned) [Compound 184], in test [1], the “TECC (AUC, 10 μM)” value is “A (a TECC value less than 12 is marked “A”)”. In addition, the “DSLS 3D (100 μM ΔT)” value in test [2] is “B (a value above 5 °C and less than or equal to 10 °C is marked “B”)”.

Regarding `C[C@@H](Cc1cccc(C2(C)CCCC(C)(C)CS(=O)(=O)CCc3c(c(F)cc4[nH]ccc34)Oc3ccc(F)c(c3)-c3nc2nn3C)c1)C(=O)NO` (single isomer, unassigned) [Compound 185], the “TECC (AUC, 10 μM)” value in test [1] was “B (a value between 12-20 is marked “B”)”. For the same molecule, the “DSLS 3D (100 μM ΔT)” value in test [2] was “C (a value greater than 10 °C and less than or equal to 25 °C is marked “C”)”.

Turning to `C[C@@H](Cc1cccc(C2(C)CCCC(C)(C)CS(=O)(=O)CCc3c(c(F)cc4[nH]ccc34)Oc3ccc(F)c(c3)-c3nc2nn3C)c1)C(=O)N(C)O` (single isomer, unassigned) [Compound 187], the “TECC (AUC, 10 μM)” value in test [1] is “A (a TECC value less than 12 is marked “A”)”. In test [2], the “DSLS 3D (100 μM ΔT)” value is “B (a value above 5 °C and less than or equal to 10 °C is marked “B”)”.

With `CCONC(=O)[C@@H](C)Cc1cccc(C2(C)CCCC(C)(C)CS(=O)(=O)CCc3c(c(F)cc4[nH]ccc34)Oc3ccc(F)c(c3)-c3nc2nn3C)c1` (single isomer, unassigned) [Compound 188], the “TECC (AUC, 10 μM)” value in test [1] is given as “B (a value between 12-20 is marked “B”)”. Moreover, the “DSLS 3D (100 μM ΔT)” value in test [2] was “B (a value above 5 °C and less than or equal to 10 °C is marked “B”)”.

On to `CC(C)ONC(=O)[C@@H](C)Cc1cccc(C2(C)CCCC(C)(C)CS(=O)(=O)CCc3c(c(F)cc4[nH]ccc34)Oc3ccc(F)c(c3)-c3nc2nn3C)c1` (single isomer, unassigned) [Compound 189], for which the “TECC (AUC, 10 μM)” value in test [1] is reported as “B (a value between 12-20 is marked “B”)”. Besides, the “DSLS 3D (100 μM ΔT)” value in test [2] was “B (a value above 5 °C and less than or equal to 10 °C is marked “B”)”.
